# Test results: patent US7718161B2, “Method for treating a motoneuron disorder” (UCB Pharma GmbH, priority 2004, dated 2010)
# “Also recorded” adds a separate entry of the source.
# Assays:
# SOD mutant mice [1] = experiment: Rotarod test in SOD mutant mice; assay type: in vivo, mouse; settings: twice daily intraperitoneally from day 60
# Description: (§1) The transgenic mouse strain used for this study is G1H (Gurney et al., 1994). The animals begin to show signs of posterior limb weakness at around 3 months of age and die at 4 months.
# (§2) 40 mice are included in the study and divided into 4 groups of 10 mice. • a SOD vehicle group • a SOD treated group (SPM 927 3 mg/kg) • a SOD treated group (SPM 927 10 mg/kg) • a SOD treated group (SPM 927 30 mg/kg)
# (§3) • Rotarod test: this test evaluates the ability of the animal to stay on a rotating dowel allowing evaluation of motor coordination and proprioceptive sensitivity. The apparatus is a 3 cm diameter automated rod which turns at 12 rounds per minute (Bioseb, Paris, France). The rotarod test measures how long the mouse can maintain itself on the axle without falling. The test is stopped after an arbitrary limit of 120 s. Should the animal fall down before 120 s, the performance is recorded and two additional trials are performed. The mean time of 3 trials is calculated. […] The number of times the mice put their paws through the grid is counted and serves as a measure for motor coordination. • Hanging test: this test evaluates the ability of the animal to hang on a wire. […] The time needed by the animal to catch the string with its hindpaws is recorded (60 s maximum) during three consecutive trials. […]
# SOD mutant mice [2] = experiment: Electromyographic recordings (compound muscle action potential) in SOD mutant mice; assay type: in vivo, mouse
# Description: as §1, §2
# (§4) Animals were weighed every day. The general status of the mice was checked daily, especially for the presence of tremor, for skin aspect and for muscle wasting. EMG testing was performed once every week, starting on D70 of age until the death of the animals. The survival rate and the interval from symptom onset until death were recorded.
# Electromyographic recordings were performed using a Neuromatic 2000M electromyography apparatus. During EMG the mice are anesthetized (60 mg kg-1, Imalgène®). The measured parameters are the amplitude and the latency of the compound muscle action potential (CMAP). CMAP is measured in gastrocnemius muscle after stimulation of the sciatic nerve. A reference electrode is inserted near the Achilles tendon and an active needle placed at the base of the tail. A ground needle is inserted on the lower back of the mouse. […] The amplitude (mV) and the latency of the response (ms) are measured. […]
# SOD mutant mice [3] = experiment: Grid test in SOD mutant mice; assay type: in vivo, mouse
# Description: as §1, §2, §3
# SOD mutant mice [4] = experiment: Hanging test in SOD mutant mice; assay type: in vivo, mouse; settings: twice daily intraperitoneally from day 60
# Description: as §1, §2, §3
# SOD mutant mice [5] = experiment: Survival in the SOD mutant mouse model of ALS; assay type: in vivo
# Description: The present study investigates the effects of SPM 927 to protect or to reduce impairments observed in this ALS model. For this purpose behavioral measurements and EMGs are performed in SOD-G93A mice overexpressing mutant human Cu, Zn SOD.
# as §1, §2, §4
# The animals were treated from day 60 (before the beginning of the clinical signs) until the animal's death. The treatment was administered twice daily intraperitoneally.
# A global analysis of the data was made using one factor or repeated measures analysis of variance (ANOVA). […]
# [6] = twice daily intraperitoneally from day 60, dose not given
substance,measurement,setting,value
(R)-2-acetamide-N-benzyl-3-methoxypropionamide [SPM 927],motor symptoms in the rotarod test,SOD mutant mice [1],alleviates motor symptoms
same,motor impairment (latency of compound muscle action potential),"SOD mutant mice [2]; FIG. 3, 10 mg/kg, twice daily intraperitoneally",attenuates motor impairment
same,EMG abnormalities,SOD mutant mice [2]; [6],attenuates motor symptoms including abnormalities in electrophysiological recordings (EMG)
same,motor impairment (grid performance),"SOD mutant mice [3]; FIG. 2, 30 mg/kg, twice daily intraperitoneally",attenuates motor impairment
same,motor symptoms in the grid test,SOD mutant mice [3]; [6],alleviates motor symptoms
same,motor symptoms in the hanging test,SOD mutant mice [4],alleviates motor symptoms
same,life-span of SOD mutant mice,"SOD mutant mice [5]; FIG. 1, 3, 10, 30 mg/kg twice daily intraperitoneally from day 60 until death",dose dependently prolongs life-span
same,survival time after onset of symptoms,"SOD mutant mice [5]; chronic treatment twice daily intraperitoneally from day 60, G1H SOD-G93A mice",prolongs survival time after symptom onset; also recorded: prolongs survival time after onset of symptoms
